The values that follow come from PubChem BioAssay AID212 (DTP/NCI, 2004).

Several values for one entry are separate records, joined by “and”; a condition that tells them apart may be missing. Equal values may be shown once. Records with an inconclusive call do not appear.

The subject of the test is BDF1 mice, colon carcinoma 38 sc, T/C %. Description: NCI In Vivo Anticancer Drug Screen. Data for tumor model Colon Carcinoma 38 (subcutaneous) in B6D2F1 (BDF1) mice. As to conditions: endpoint: median tumor weight (est.), schedule: Q07DX002 (ip), higher = larger tumour. On the procedure: The antitumor activity of compounds was measured in mice bearing transplantable tumors. Survival or tumor size were measured and the results are expressed as the measurement made in the treated group (T) divided by the measurement made in the vehicle treated control group (C). The tumor model used in this assay is Colon Carcinoma 38 (subcutaneous) in B6D2F1 (BDF1) mice

[1] abbreviates: dose: 6.25 mg/kg/injection, vehicle: saline with Tween-80.
[2] abbreviates: dose: 12.5 mg/kg/injection, vehicle: saline with Tween-80.
Setting [3] is: dose: 25.0 mg/kg/injection, vehicle: saline with Tween-80.
Setting [4] is: dose: 100.0 mg/kg/injection, vehicle: saline with Tween-80.
Where [5] appears, read: dose: 50.0 mg/kg/injection, vehicle: Klucel (hydroxypropylcellulose) (HPC).
Setting [6] is: dose: 50.0 mg/kg/injection, vehicle: saline with Tween-80.
Where [7] appears, read: dose: 200.0 mg/kg/injection, vehicle: Klucel (hydroxypropylcellulose) (HPC).
Where [8] appears, read: dose: 200.0 mg/kg/injection, vehicle: saline with Tween-80.
The mark [9] stands for this setting: dose: 400.0 mg/kg/injection, vehicle: Klucel (hydroxypropylcellulose) (HPC).
[10] abbreviates: dose: 12.5 mg/kg/injection, vehicle: saline.
Where [11] appears, read: dose: 6.25 mg/kg/injection, vehicle: Klucel (hydroxypropylcellulose) (HPC).

Take `C/C(=N/NC(N)=S)c1ccc2ccccc2c1`: the T/C reads like this: under setting [1], 111 % of control; under setting [2], 63 % of control; under setting [3], 70 % of control and 80 % of control; under setting [4], 31 % of control and 48 % of control.
As to `O=Cc1ccccc1`, the T/C was 77 % of control (dose: 25.0 mg/kg/injection, vehicle: Klucel (hydroxypropylcellulose) (HPC)); 69 % of control under setting [3]; 83 % of control under setting [5]; 77 % of control under setting [6]; 98 % of control (dose: 100.0 mg/kg/injection, vehicle: Klucel (hydroxypropylcellulose) (HPC)); 108 % of control under setting [4]. For the same compound, the T/C under setting [7] is 60 % of control, the T/C under setting [8] was 112 % of control and the T/C under setting [9] is 97 % of control.
As to `COC1C(C)OC(OC2CC(C)(O)Cc3cc4c(c(O)c32)C(=O)c2c(O)cc3c(c2C4=O)OC2OC3(C)C(O)C(N(C)C)C2O)C(OC)C1(C)OC` (stereo not given), the T/C reads like this: (dose: 0.62 mg/kg/injection, vehicle: other) 53 % of control; (dose: 1.25 mg/kg/injection, vehicle: other) 81 % of control; (dose: 5.0 mg/kg/injection, vehicle: other) 83 % of control; (dose: 10.0 mg/kg/injection, vehicle: other) 89 % of control.
`CCC(=O)O[C@H]1CC[C@H]2[C@@H]3CCC4=CC(=O)CC[C@]4(C)[C@H]3CC[C@]12C`: the T/C by setting is: (dose: 20.0 mg/kg/injection, vehicle: Klucel (hydroxypropylcellulose) (HPC)) 72 % of control; (dose: 40.0 mg/kg/injection, vehicle: Klucel (hydroxypropylcellulose) (HPC)) 71 % of control and 81 % of control; (dose: 40.0 mg/kg/injection, vehicle: suspension in saline) 60 % of control; (dose: 80.0 mg/kg/injection, vehicle: suspension in saline) 93 % of control; (dose: 160.0 mg/kg/injection, vehicle: suspension in saline) 86 % of control; (dose: 320.0 mg/kg/injection, vehicle: suspension in saline) 99 % of control. Besides, the T/C is 89 % of control and 100 % of control and 101 % of control (dose: 640.0 mg/kg/injection, vehicle: Klucel (hydroxypropylcellulose) (HPC)); 86 % of control (dose: 640.0 mg/kg/injection, vehicle: suspension in saline).
Turning to `Nc1nc(=O)n(C2OC(CO)C(O)C2O)cc1F` (stereo not given), the T/C is 124 % of control under setting [10]; 211 % of control (dose: 25.0 mg/kg/injection, vehicle: saline); 118 % of control and 235 % of control (dose: 50.0 mg/kg/injection, vehicle: saline); 60 % of control and 83 % of control (dose: 200.0 mg/kg/injection, vehicle: saline).
Turning to `Nc1ccc(C(OC(=O)c2cc3ccccc3c(Cc3c(O)c(C(=O)OC(c4ccc(N)cc4)(c4ccc(N)cc4)c4ccc(N)cc4)cc4ccccc34)c2O)(c2ccc(N)cc2)c2ccc(N)cc2)cc1`, the T/C by setting is: (dose: 1.56 mg/kg/injection, vehicle: saline with Tween-80) 100 % of control; (dose: 3.12 mg/kg/injection, vehicle: saline with Tween-80) 70 % of control; under setting [1], 92 % of control; under setting [3], 84 % of control and 93 % of control; under setting [6], 114 % of control.
`CN(C)c1ccc2c(NCCCCCCNc3ccnc4cc(N(C)C)ccc34)ccnc2c1`: the T/C (dose: 3.12 mg/kg/injection, vehicle: distilled water + Tween-80 + alcohol) was 81 % of control; the T/C (dose: 6.25 mg/kg/injection, vehicle: distilled water + Tween-80 + alcohol) was 77 % of control; the T/C (dose: 12.5 mg/kg/injection, vehicle: distilled water + Tween-80 + alcohol) was 62 % of control; the T/C (dose: 25.0 mg/kg/injection, vehicle: distilled water + Tween-80 + alcohol) is 62 % of control; the T/C (dose: 50.0 mg/kg/injection, vehicle: distilled water + Tween-80 + alcohol) was 47 % of control; the T/C (dose: 100.0 mg/kg/injection, vehicle: distilled water + Tween-80 + alcohol) is 20 % of control.
For the compound `O=C(O)CC(NC(=O)CP(=O)(O)O)C(=O)O.[NH-]C1CCCCC1[NH-].[Pt+2]` (stereo not given), the T/C (dose: 1.56 mg/kg/injection, vehicle: dextrose) was 103 % of control; the T/C (dose: 3.12 mg/kg/injection, vehicle: dextrose) is 77 % of control and 87 % of control; the T/C (dose: 6.25 mg/kg/injection, vehicle: dextrose) is 85 % of control and 90 % of control; the T/C (dose: 12.5 mg/kg/injection, vehicle: dextrose) was 64 % of control and 65 % of control; the T/C (dose: 25.0 mg/kg/injection, vehicle: dextrose) is 44 % of control and 54 % of control; the T/C (dose: 50.0 mg/kg/injection, vehicle: dextrose) was 14 % of control.
In the case of `C1CCC2OCCOCCOC3CCCCC3OCCOCCOC2C1` (stereo not given), the T/C (dose: 3.12 mg/kg/injection, vehicle: Klucel (hydroxypropylcellulose) (HPC)) was 210 % of control and 96 % of control; the T/C under setting [11] was 176 % of control; the T/C (dose: 12.5 mg/kg/injection, vehicle: Klucel (hydroxypropylcellulose) (HPC)) was 85 % of control; the T/C under setting [5] was 85 % of control.
Regarding `N#Cc1nc(C#N)c(Sc2ccccc2)c(Sc2ccccc2)c1Sc1ccccc1`, the T/C reads like this: under setting [1], 93 % of control; under setting [2], 30 % of control; under setting [3], 67 % of control; under setting [6], 78 % of control; under setting [4], 92 % of control; under setting [8], 54 % of control.
For `O=C[C@@H](CO)O[C@H](C=O)n1cnc2c(=O)[nH]cnc21`, the T/C is 168 % of control (dose: 18.7 mg/kg/injection, vehicle: saline); 105 % of control (dose: 37.5 mg/kg/injection, vehicle: saline); 121 % of control (dose: 75.0 mg/kg/injection, vehicle: saline); 100 % of control (dose: 150.0 mg/kg/injection, vehicle: saline); 120 % of control (dose: 300.0 mg/kg/injection, vehicle: saline); 86 % of control (dose: 600.0 mg/kg/injection, vehicle: saline).
Consider `O=C(Nc1ccc(C2=NCCN2)cc1)c1ccc(C(=O)Nc2ccc(C3=NCCN3)cc2)c(Cl)c1`, for which the T/C runs as follows: under setting [1], 117 % of control; under setting [2], 117 % of control; under setting [6], 118 % of control.
In the case of `N=C1C=C[C@]2(O)C[C@H](Cl)CN12`, the T/C was 73 % of control (dose: 1.56 mg/kg/injection, vehicle: saline); 79 % of control (dose: 3.12 mg/kg/injection, vehicle: saline); 71 % of control (dose: 6.25 mg/kg/injection, vehicle: saline); 88 % of control under setting [10].
Turning to `C[C@@H]1C[C@H]2[C@@H]3CCC4=CC(=O)C=C[C@]4(C)[C@@]3(F)[C@@H](O)C[C@]2(C)[C@@]1(O)C(=O)CO`, the T/C is, setting by setting: under setting [11], 156 % of control; under setting [7], 53 % of control and 58 % of control; under setting [9], 25 % of control.
Consider `O=C(O)C1CC(c2ccccc2)=NN1c1ccccc1` (stereo not given), for which the T/C reads like this: (dose: 25.0 mg/kg/injection, vehicle: water) 114 % of control and 103 % of control; (dose: 100.0 mg/kg/injection, vehicle: water) 65 % of control; (dose: 200.0 mg/kg/injection, vehicle: water) 56 % of control and 69 % of control.
